{"source": "ChEMBL document CHEMBL5390253", "about": "“Discovery of Selective and Potent Macrocyclic CDK9 Inhibitors for the Treatment of Osimertinib-Resistant Non-Small-Cell Lung Cancer” (J Med Chem, 2023)", "key": {"[1]": {"target": "Receptor-type tyrosine-protein kinase FLT3 (Homo sapiens) (UniProt P36888)", "sequence (P36888 whole entry)": "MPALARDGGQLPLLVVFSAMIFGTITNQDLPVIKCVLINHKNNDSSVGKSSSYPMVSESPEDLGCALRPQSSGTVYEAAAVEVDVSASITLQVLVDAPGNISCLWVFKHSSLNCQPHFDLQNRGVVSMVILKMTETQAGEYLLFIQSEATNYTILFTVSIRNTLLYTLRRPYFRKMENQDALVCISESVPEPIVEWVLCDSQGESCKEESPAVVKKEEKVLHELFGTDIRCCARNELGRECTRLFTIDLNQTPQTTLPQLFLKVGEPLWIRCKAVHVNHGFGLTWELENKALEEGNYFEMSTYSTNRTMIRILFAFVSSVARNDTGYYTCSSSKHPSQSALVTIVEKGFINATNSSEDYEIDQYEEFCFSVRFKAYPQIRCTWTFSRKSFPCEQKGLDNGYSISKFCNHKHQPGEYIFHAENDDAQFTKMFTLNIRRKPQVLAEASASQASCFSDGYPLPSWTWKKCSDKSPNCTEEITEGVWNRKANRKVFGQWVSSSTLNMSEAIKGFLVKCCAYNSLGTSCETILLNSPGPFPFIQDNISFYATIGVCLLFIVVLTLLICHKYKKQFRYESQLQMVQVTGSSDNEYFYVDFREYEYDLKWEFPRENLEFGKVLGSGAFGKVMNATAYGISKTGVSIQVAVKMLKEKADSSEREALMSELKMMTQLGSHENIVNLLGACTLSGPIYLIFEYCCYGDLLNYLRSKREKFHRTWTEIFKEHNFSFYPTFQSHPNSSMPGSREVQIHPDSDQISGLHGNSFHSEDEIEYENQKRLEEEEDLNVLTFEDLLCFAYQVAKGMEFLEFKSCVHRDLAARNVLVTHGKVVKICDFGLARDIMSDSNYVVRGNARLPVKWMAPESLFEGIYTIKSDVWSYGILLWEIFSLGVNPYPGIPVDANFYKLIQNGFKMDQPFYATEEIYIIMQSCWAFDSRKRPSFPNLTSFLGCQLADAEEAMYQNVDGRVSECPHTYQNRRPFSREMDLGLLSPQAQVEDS", "assay": "Inhibition of FLT3 (unknown origin) at 100 nM preincubated for 10 mins followed by substrate addition and measured after 60 mins in presence of ATP by ADP-Glo reagent based assay relative to control", "conditions": "time 70.0 min"}, "[2]": {"target": "Tyrosine-protein kinase JAK2 (Homo sapiens) (UniProt O60674)", "assay": "Inhibition of JAK2 (unknown origin) at 100 nM preincubated for 10 mins followed by substrate addition and measured after 60 mins in presence of ATP by ADP-Glo reagent based assay relative to control", "conditions": "time 70.0 min"}, "CDK9/cyclin T1": {"target": "CDK9/cyclin T1 (Homo sapiens, UniProt P50750)", "sequence (O60563 whole entry)": "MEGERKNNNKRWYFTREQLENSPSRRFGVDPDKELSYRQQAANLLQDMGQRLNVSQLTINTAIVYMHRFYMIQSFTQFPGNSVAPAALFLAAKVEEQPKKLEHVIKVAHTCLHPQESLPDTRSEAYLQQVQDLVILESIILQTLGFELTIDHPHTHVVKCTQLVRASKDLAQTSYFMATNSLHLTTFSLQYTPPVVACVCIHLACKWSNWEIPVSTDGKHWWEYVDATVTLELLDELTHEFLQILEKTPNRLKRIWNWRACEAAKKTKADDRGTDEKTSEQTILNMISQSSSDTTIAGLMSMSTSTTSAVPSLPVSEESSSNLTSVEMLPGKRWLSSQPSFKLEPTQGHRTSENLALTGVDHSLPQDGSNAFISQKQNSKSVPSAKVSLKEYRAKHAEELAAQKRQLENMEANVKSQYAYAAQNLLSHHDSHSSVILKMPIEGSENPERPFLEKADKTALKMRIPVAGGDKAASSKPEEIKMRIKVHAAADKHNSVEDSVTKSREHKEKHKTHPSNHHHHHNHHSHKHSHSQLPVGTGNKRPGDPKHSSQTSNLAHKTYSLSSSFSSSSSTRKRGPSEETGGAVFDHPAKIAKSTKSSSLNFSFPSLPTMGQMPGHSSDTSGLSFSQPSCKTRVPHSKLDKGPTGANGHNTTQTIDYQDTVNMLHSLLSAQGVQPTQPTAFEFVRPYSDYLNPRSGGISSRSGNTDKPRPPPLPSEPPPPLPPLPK", "sequence (P50750 whole entry)": "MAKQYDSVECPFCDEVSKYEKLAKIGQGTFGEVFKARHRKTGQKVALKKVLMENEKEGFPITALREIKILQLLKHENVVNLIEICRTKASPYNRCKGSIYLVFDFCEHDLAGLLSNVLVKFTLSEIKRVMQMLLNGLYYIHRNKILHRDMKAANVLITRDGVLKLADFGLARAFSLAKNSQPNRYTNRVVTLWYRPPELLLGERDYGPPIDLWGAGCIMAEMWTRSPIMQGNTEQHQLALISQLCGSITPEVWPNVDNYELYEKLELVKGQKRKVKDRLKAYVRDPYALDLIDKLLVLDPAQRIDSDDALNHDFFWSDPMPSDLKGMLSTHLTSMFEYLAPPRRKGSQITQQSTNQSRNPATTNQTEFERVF", "assay": "Inhibition of CDK9/Cyclin-T1 (unknown origin) preincubated for 10 mins followed by substrate addition and measured after 60 mins in presence of ATP by ADP-Glo reagent based assay", "type": "protein-complex assay"}, "NCI-H1975 [3]": {"test_system": "NCI-H1975", "assay": "Antiproliferative activity against human NCI-H1975 cells incubated for 72 hrs by MTT assay", "type": "functional, cell-based", "conditions": "NCI-H1975, 72 h"}, "[4]": {"target": "Cyclin-dependent kinase 1/cyclin B1 (Homo sapiens) (UniProt P06493+P14635)", "sequence (P06493 whole entry, looked up)": "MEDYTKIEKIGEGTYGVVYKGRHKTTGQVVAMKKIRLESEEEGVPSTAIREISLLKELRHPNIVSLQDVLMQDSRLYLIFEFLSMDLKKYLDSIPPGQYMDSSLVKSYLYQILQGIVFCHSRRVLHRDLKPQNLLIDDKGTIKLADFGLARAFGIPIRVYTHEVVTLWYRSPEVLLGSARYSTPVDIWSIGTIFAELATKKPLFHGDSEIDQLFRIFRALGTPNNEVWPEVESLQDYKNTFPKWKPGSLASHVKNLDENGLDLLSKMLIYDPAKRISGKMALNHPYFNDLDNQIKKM", "sequence (P14635 whole entry, looked up)": "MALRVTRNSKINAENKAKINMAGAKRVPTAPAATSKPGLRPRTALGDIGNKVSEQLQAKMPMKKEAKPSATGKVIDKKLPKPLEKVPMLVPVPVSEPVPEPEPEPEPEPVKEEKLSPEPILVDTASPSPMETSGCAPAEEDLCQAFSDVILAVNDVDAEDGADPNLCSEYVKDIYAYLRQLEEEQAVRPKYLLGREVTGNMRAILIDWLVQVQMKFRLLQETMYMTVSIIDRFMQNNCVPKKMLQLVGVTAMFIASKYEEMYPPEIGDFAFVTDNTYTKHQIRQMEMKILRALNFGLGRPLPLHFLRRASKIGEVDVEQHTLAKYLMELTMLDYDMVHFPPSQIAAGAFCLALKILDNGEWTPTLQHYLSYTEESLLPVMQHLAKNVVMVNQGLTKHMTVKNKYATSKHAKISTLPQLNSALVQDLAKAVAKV", "assay": "Inhibition of CDK1/Cyclin B1 (unknown origin) at 200 nM preincubated for 10 mins followed by substrate addition and measured after 60 mins in presence of ATP by ADP-Glo reagent based assay relative to control", "type": "protein-complex assay", "conditions": "time 70.0 min"}, "[5]": {"target": "T1, Cyclin-dependent kinase 2/cyclin E1 (Homo sapiens) (UniProt P24864+P24941)", "assay": "Inhibition of CDK2/Cyclin E1 (unknown origin) at 200 nM preincubated for 10 mins followed by substrate addition and measured after 60 mins in presence of ATP by ADP-Glo reagent based assay relative to control", "type": "protein-complex assay", "conditions": "time 70.0 min"}, "[6]": {"target": "Cyclin-dependent kinase 4/cyclin D1 (Homo sapiens) (UniProt P11802+P24385)", "assay": "Inhibition of CDK4/Cyclin D1 (unknown origin) at 200 nM preincubated for 10 mins followed by substrate addition and measured after 60 mins in presence of ATP by ADP-Glo reagent based assay relative to control", "type": "protein-complex assay", "conditions": "time 70.0 min"}, "[7]": {"target": "CDK4/Cyclin D3 (Homo sapiens) (UniProt P11802+P30281)", "assay": "Inhibition of CDK4/Cyclin D3 (unknown origin) at 200 nM preincubated for 10 mins followed by substrate addition and measured after 60 mins in presence of ATP by ADP-Glo reagent based assay relative to control", "type": "protein-complex assay", "conditions": "time 70.0 min"}, "[8]": {"target": "CDK12/Cyclin K (Homo sapiens) (UniProt O75909+Q9NYV4)", "assay": "Inhibition of CDK12/cyclin K (unknown origin) at 200 nM preincubated for 10 mins followed by substrate addition and measured after 60 mins in presence of ATP by ADP-Glo reagent based assay relative to control", "type": "protein-complex assay", "conditions": "time 70.0 min"}, "[9]": {"target": "CDK18/Cyclin Y (Homo sapiens) (UniProt Q07002+Q8ND76)", "assay": "Inhibition of CDK18/cyclin Y (unknown origin) at 200 nM preincubated for 10 mins followed by substrate addition and measured after 60 mins in presence of ATP by ADP-Glo reagent based assay relative to control", "type": "protein-complex assay", "conditions": "time 70.0 min"}, "[10]": {"target": "Dual specificity tyrosine-phosphorylation-regulated kinase 1A (Homo sapiens) (UniProt Q13627)", "assay": "Inhibition of DYRK1A (unknown origin) at 100 nM preincubated for 10 mins followed by substrate addition and measured after 60 mins in presence of ATP by ADP-Glo reagent based assay relative to control", "conditions": "time 70.0 min"}, "NCI-H596": {"test_system": "NCI-H596", "assay": "Antiproliferative activity against human NCI-H596 cells incubated for 72 hrs by MTT assay", "type": "functional, cell-based", "conditions": "NCI-H596, 72 h"}, "[11]": {"target": "Homeodomain-interacting protein kinase 1 (Homo sapiens) (UniProt Q86Z02)", "sequence (Q86Z02 whole entry, looked up)": "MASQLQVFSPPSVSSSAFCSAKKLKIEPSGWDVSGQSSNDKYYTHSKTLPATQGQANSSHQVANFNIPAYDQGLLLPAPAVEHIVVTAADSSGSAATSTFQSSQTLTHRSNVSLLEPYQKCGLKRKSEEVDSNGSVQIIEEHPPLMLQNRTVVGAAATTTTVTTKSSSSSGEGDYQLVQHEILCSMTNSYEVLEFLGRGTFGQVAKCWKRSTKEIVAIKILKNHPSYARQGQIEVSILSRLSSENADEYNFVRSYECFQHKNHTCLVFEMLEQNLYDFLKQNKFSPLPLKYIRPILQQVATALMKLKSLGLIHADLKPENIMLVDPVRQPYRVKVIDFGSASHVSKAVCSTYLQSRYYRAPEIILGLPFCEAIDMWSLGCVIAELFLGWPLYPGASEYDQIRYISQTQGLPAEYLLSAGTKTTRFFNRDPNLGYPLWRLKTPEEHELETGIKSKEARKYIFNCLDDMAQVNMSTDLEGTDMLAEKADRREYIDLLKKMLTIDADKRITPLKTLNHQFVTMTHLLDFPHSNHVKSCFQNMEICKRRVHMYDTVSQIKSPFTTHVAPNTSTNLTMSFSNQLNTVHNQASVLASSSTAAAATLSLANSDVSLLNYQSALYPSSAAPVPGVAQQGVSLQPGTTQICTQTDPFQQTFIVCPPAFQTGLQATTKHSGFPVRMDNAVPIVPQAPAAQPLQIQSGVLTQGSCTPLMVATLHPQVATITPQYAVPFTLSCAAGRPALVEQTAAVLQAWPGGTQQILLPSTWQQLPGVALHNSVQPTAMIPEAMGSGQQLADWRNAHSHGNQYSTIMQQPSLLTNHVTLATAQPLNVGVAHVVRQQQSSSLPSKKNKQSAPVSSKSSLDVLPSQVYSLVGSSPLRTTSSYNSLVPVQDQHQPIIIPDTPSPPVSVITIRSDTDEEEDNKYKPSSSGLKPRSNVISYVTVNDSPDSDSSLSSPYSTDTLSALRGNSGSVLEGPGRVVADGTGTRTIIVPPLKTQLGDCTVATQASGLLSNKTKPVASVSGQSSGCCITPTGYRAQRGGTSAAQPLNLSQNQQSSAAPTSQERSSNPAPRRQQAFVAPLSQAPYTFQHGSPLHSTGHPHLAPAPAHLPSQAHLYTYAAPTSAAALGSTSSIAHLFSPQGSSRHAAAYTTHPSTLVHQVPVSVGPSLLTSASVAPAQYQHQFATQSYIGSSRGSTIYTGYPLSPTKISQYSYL", "assay": "Inhibition of HIPK1 (unknown origin) at 500 nM preincubated for 10 mins followed by substrate addition and measured after 60 mins in presence of ATP by ADP-Glo reagent based assay relative to control", "conditions": "time 70.0 min"}, "[12]": {"target": "BDNF/NT-3 growth factors receptor (Homo sapiens) (UniProt Q16620)", "sequence (Q16620 32-822 limits assumed)": "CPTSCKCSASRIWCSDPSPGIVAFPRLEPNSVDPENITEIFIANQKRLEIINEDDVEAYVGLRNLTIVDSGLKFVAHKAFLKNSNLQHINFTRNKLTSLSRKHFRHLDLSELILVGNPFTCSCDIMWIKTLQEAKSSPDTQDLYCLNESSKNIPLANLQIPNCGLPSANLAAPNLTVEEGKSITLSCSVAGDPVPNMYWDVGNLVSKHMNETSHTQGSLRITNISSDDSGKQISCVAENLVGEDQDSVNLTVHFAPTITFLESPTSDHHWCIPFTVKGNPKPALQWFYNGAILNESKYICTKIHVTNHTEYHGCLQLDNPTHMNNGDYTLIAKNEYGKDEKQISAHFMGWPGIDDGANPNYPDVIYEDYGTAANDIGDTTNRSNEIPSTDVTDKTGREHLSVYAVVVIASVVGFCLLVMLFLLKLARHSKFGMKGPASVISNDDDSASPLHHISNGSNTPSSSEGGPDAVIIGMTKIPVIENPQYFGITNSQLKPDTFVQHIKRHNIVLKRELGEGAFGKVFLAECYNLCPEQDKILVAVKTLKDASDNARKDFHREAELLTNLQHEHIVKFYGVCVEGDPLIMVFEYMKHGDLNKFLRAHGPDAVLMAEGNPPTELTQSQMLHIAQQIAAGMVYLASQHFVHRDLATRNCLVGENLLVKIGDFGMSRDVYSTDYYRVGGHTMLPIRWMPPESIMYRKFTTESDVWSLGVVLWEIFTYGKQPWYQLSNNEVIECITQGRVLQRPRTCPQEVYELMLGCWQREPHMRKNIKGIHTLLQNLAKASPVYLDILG", "assay": "Inhibition of TRKB (unknown origin) at 500 nM preincubated for 10 mins followed by substrate addition and measured after 60 mins in presence of ATP by ADP-Glo reagent based assay relative to control", "conditions": "time 70.0 min"}, "[13]": {"target": "T1, Cyclin-dependent kinase 2/cyclin E1 (Homo sapiens)", "assay": "Inhibition of CDK2/cyclin E1 (unknown origin) at 500 nM preincubated for 10 mins followed by substrate addition and measured after 60 mins in presence of ATP by ADP-Glo reagent based assay relative to control", "type": "protein-complex assay", "conditions": "time 70.0 min"}, "[14]": {"assay": "Inhibition of colony formation in human Osimertinib-resistant NCI-H1975 cell assessed as inhibition of cell growth at 125 nM measured after 2 weeks by crystal violet staining based analysis relative to control", "type": "functional", "conditions": "NCI-H1975, 336 h"}, "NCI-H1975 [15]": {"test_system": "NCI-H1975", "assay": "Downregulation of Mcl-1 level in human Osimertinib-resistant NCI-H1975 cell at 500 nM by Western blotting analysis", "type": "functional, cell-based", "conditions": "time 2-12 hrs, TDE = time-dependent effect"}, "NCI-H1975 [16]": {"test_system": "NCI-H1975", "assay": "Downregulation of Mcl-1 level in human Osimertinib-resistant NCI-H1975 cell at 500 nM measured after 2 hrs by Western blotting analysis", "type": "functional, cell-based"}, "NCI-H1975 [17]": {"test_system": "NCI-H1975", "assay": "Downregulation of cleaved caspase-3 level in human Osimertinib-resistant NCI-H1975 cell measured after 16 hrs by Western blot analysis", "type": "functional, cell-based", "conditions": "dose 125-2000 nM"}, "[18]": {"assay": "Induction of apoptosis in human Osimertinib-resistant NCI-H1975 cell assessed as viable cells at 2000 nM measured after 16 hrs by Annexin V-FITC and PI staining based analysis (reference value: 94.9%)", "type": "functional", "conditions": "read-out: Activity"}, "[19]": {"assay": "Induction of apoptosis in human Osimertinib-resistant NCI-H1975 cell assessed as early apoptotic cells at 125 nM measured after 16 hrs by Annexin V-FITC and PI staining based analysis (Rvb =1.78%)", "type": "functional"}, "[20]": {"assay": "Induction of apoptosis in human Osimertinib-resistant NCI-H1975 cell assessed as early apoptotic cells at 500 nM measured after 16 hrs by Annexin V-FITC and PI staining based analysis (reference value: 1.78%)", "type": "functional"}, "[21]": {"assay": "Induction of apoptosis in human Osimertinib-resistant NCI-H1975 cell assessed as late apoptotic cells at 125 nM measured after 16 hrs by Annexin V-FITC and PI staining based analysis (Rvb =2.84%)", "type": "functional"}, "[22]": {"assay": "Induction of apoptosis in human Osimertinib-resistant NCI-H1975 cell assessed as necrotic cells at 125 nM measured after 16 hrs by Annexin V-FITC and PI staining based analysis (reference value: 0.50%)", "type": "functional"}, "[23]": {"assay": "Metabolic stability in human liver microsomes assessed as half life at 10 uM measured at 5 to 60 mins by LC-MS/MS analysis", "type": "ADME, Microsome", "conditions": "time 5-60 min"}, "[24]": {"assay": "Toxicity in ICR mouse assessed as morphological changes in liver at 1000 mg/kg, po measured after 9 days by H and E staining based analysis", "type": "organism-based", "conditions": "in vivo, 216 h, time 9 day"}, "[25]": {"assay": "Toxicity in ICR mouse assessed as abnormalities in liver at 1000 mg/kg, po measured after 9 days by H and E staining based analysis", "type": "organism-based", "conditions": "in vivo, 216 h, time 9 day"}, "[26]": {"assay": "Toxicity in ICR mouse assessed as abnormalities in kidney at 1000 mg/kg, po measured after 9 days by H and E staining based analysis", "type": "organism-based", "conditions": "in vivo, 216 h, time 9 day"}, "[27]": {"assay": "Antitumor activity against patient derived #2422 lung cancer organoid assessed as inhibition of growth measured after 4 days", "type": "functional, tissue-based", "conditions": "Homo sapiens, 96 h"}}, "note": "Active and inactive are the calls of the source. No cut-off for these calls is given here.", "data": [{"smiles": "O=C(NCCN1CCOCC1)c1ccc2cc1OCCCCCCOc1cc(ccc1F)-c1nc(ncc1F)N2", "values": [{"measurement": "inhibition", "setting": "[1]", "result": 21.2, "unit": "%"}, {"measurement": "inhibition", "setting": "[2]", "result": 23.3, "unit": "%"}, {"measurement": "IC50", "setting": "CDK9/cyclin T1", "result": 3.2, "unit": "nM"}, {"measurement": "IC50", "setting": "NCI-H1975 [3]", "result": 174, "unit": "nM"}, {"measurement": "inhibition", "setting": "[4]", "result": 33, "unit": "%"}, {"measurement": "inhibition", "setting": "[5]", "result": 44.7, "unit": "%"}, {"measurement": "inhibition", "setting": "[6]", "result": 32.1, "unit": "%"}, {"measurement": "inhibition", "setting": "[7]", "result": 50.1, "unit": "%"}, {"measurement": "inhibition", "setting": "[8]", "result": 56.4, "unit": "%"}, {"measurement": "inhibition", "setting": "[9]", "result": 12, "unit": "%"}, {"measurement": "inhibition", "setting": "[10]", "result": 14.3, "unit": "%"}, {"measurement": "IC50", "setting": "NCI-H596", "result": 332, "unit": "nM"}, {"measurement": "inhibition", "setting": "[11]", "result": 96, "unit": "%"}, {"measurement": "inhibition", "setting": "[12]", "result": 80.7, "unit": "%"}, {"measurement": "inhibition", "setting": "[13]", "result": 76.1, "unit": "%"}, {"measurement": "inhibition at 0.125 µM", "setting": "[14]", "result": 100, "unit": "%"}, {"measurement": "Activity", "setting": "NCI-H1975 [15]", "result": "Tde"}, {"measurement": "Activity", "setting": "NCI-H1975 [16]", "result": "Active"}, {"measurement": "Activity", "setting": "NCI-H1975 [17]", "result": "Dose-Dependent Effect"}, {"measurement": "viability at 2 µM", "setting": "[18]", "result": 65.5, "unit": "%"}, {"measurement": "Activity", "setting": "[19]", "result": 4.7, "unit": "%"}, {"measurement": "Activity", "setting": "[20]", "result": 14.4, "unit": "%"}, {"measurement": "Activity", "setting": "[21]", "result": 3.15, "unit": "%"}, {"measurement": "Activity", "setting": "[22]", "result": 3.25, "unit": "%"}, {"measurement": "half-life at 10 µM", "setting": "[23]", "result": 10.7, "unit": "min"}, {"measurement": "Activity", "setting": "[24]", "result": "Non-Toxic"}, {"measurement": "Activity", "setting": "[25]", "result": "Non-Toxic"}, {"measurement": "Activity", "setting": "[26]", "result": "Non-Toxic"}, {"measurement": "IC50", "setting": "[27]", "result": "< 80", "unit": "nM"}]}]}
